This note sets out measurements from patent US20260201008A1, “SECRETIN-DERIVED GLP1R SELECTIVE AGONISTS” (GUBRA A/S, priority 2023, published 2026).

Data set [1] is described as follows: Fibril formation of crude library peptides (Thioflavin T). In kind it is physicochemical. More on the design: key: average ThT fluorescence emission at 480 nm (ex 450 nm), raw units. The note with it: Physical stability of peptides. In a few lines:
(§1)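 Crude peptides at 267 μM in 50 mM sodium acetate pH 4.0 or 50 mM sodium phosphate pH 7.0, pre-incubated 1-2 h at room temperature, then 4 μM final ThT added. Turbidity read first as A600. ThT fluorescence (ex 450/em 480 nm) read every 10 min for 72 h at 40° C, with 5 min shaking before each read; fibril formation = average emission.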

For the next data set, the target named is GLP1R (Homo sapiens, UniProt P43220). Description: hGLP1R potency, cAMP accumulation in CHO-K1 cells stably overexpressing hGLP1R. In kind it is cell-based. More on the design: host or cells: CHO-K1. As to conditions: for EC50: cAMP accumulation, CHO-K1 cells overexpressing hGLP1R, read-out: hGLP1R pEC50 (converted); for SCTR EC50/GLP1R EC50 ratio: selectivity for hGLP1R over hSCTR, cAMP accumulation in CHO-K1 cells. Summed up: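 Thawed cells go straight into buffer containing 0.5 mM IBMX and 0.05% casein, get graded compound doses for 30 min at room temperature, and are then assayed for accumulated cAMP by time-resolved FRET. Human GLP-1(7-36) serves as positive control; EC50 is derived by nonlinear regression.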

The nature of data set [2]: Turbidity of crude library peptides (absorbance at 600 nm). In kind it is physicochemical. As to conditions: Physical stability of peptides. Summed up: as §1
The target in the next data set is SCTR (Homo sapiens, UniProt P47872). Description: hSCTR potency, cAMP accumulation in CHO-K1 cells stably overexpressing hSCTR. In kind it is cell-based. Set-up: alternatively Euroscreen ES-712-AF; FAST-0161L; host or cells: CHO-K1. The note with it: cAMP accumulation, CHO-K1 cells overexpressing hSCTR; read-out: hSCTR pEC50 (converted). In a few lines: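 Read-out is TR-FRET cAMP detection, recorded one hour after reagent addition, in CHO-K1 cells stably overexpressing hSCTR. Cells in DPBS containing 0.05% casein and 0.5 mM IBMX are exposed to graded peptide doses for 30 min at room temperature, with human secretin as reference agonist.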

Numbered stars: 1 amine (or outer) side, 2 acyl side, 3 side chain; on linkers, the order of the positions; unused ones are H or OH. Square brackets hold non-standard residues; d marks the D form. Side chains are listed from the residue outwards. Peptide text beside a SMILES is read from it. * marks the point of attachment. C20 diacid = O=C(O)CCCCCCCCCCCCCCCCCCC(=O)*; γGlu = O=C(O)[C@H](CCC(=O)[*:2])N[*:1]; AEEA = NCCOCCOCC(=O)O; Aib = CC(C)(N)C(=O)O

SCTR, sequence (P47872 23-440): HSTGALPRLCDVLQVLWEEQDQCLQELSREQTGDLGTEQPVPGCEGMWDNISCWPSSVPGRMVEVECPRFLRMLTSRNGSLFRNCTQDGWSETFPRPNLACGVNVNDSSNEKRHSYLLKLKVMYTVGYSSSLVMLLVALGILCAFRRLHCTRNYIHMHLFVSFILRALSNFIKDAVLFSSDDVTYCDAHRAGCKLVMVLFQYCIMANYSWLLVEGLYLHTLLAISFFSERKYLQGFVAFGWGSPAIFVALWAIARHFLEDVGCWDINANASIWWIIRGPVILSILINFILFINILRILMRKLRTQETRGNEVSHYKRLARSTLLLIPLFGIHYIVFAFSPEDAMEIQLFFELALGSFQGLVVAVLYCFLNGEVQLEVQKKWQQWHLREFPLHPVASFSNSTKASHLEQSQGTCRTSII
GLP1R, sequence (P43220 24-463): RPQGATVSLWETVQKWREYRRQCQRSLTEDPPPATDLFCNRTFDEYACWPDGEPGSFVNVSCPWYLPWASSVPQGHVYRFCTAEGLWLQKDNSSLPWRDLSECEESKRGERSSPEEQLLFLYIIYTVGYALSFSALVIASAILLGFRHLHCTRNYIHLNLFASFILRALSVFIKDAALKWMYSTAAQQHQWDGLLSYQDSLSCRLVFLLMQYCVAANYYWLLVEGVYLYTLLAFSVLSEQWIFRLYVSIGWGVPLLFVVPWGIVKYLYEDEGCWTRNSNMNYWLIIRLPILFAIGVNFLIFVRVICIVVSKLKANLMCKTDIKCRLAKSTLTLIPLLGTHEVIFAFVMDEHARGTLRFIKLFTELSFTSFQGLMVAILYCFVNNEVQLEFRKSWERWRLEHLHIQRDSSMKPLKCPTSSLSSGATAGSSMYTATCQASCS

Take `CC(C)C[C@H](NC(=O)[C@H](Cc1ccccc1)NC(=O)[C@H](CCCNC(=N)N)NC(=O)[C@H](CCC(N)=O)NC(=O)[C@H](CC(C)C)NC(=O)C(C)(C)NC(=O)[C@H](C)NC(=O)[C@H](CCC(=O)O)NC(=O)[C@H](CCC(=O)O)NC(=O)[C@H](CCCCNC(=O)COCCOCCNC(=O)COCCOCCNC(=O)CC[C@H](NC(=O)CCCCCCCCCCCCCCCCCCC(=O)O)C(=O)O)NC(=O)[C@H](CC(C)C)NC(=O)[C@H](Cc1ccc(O)cc1)NC(=O)[C@H](CO)NC(=O)[C@@H](NC(=O)[C@H](CC(=O)O)NC(=O)[C@H](CO)NC(=O)[C@@H](NC(=O)[C@H](Cc1ccccc1)NC(=O)[C@@H](NC(=O)CNC(=O)[C@H](CC(C)C)NC(=O)C(C)(C)NC(=O)[C@@H](N)Cc1c[nH]cn1)[C@@H](C)O)[C@@H](C)O)C(C)C)C(=O)N[C@@H](CCC(=O)O)C(=O)N[C@@H](Cc1c[nH]cn1)C(=O)N[C@@H](CC(C)C)C(=O)N[C@H](C(N)=O)C(C)C` [compound 170] (H-H[Aib]LGTFTSDVSYLK([AEEA-AEEA-γGlu-C20 diacid])EEA[Aib]LQRFLEHLV-NH2): the Fibril formation in data set [1] is recorded as 3337. Besides, on GLP1R, the EC50 is 0.0251 nM and the “SCTR EC50/GLP1R EC50 ratio” value was found to be 873474. In data set [2], the “Turbidity (pH 7)” value was determined as 0.08. On SCTR, the EC50 is 25100 nM.

On to `CC(C)C[C@H](NC(=O)[C@H](Cc1ccccc1)NC(=O)[C@H](CCCNC(=N)N)NC(=O)[C@H](CCC(N)=O)NC(=O)[C@H](CC(C)C)NC(=O)C(C)(C)NC(=O)[C@H](C)NC(=O)[C@H](CCC(=O)O)NC(=O)[C@H](CCC(=O)O)NC(=O)[C@H](CCCCNC(=O)COCCOCCNC(=O)COCCOCCNC(=O)CC[C@H](NC(=O)CCCCCCCCCCCCCCCCCCC(=O)O)C(=O)O)NC(=O)[C@H](CC(C)C)NC(=O)[C@H](Cc1ccc(O)cc1)NC(=O)[C@H](CO)NC(=O)[C@@H](NC(=O)[C@H](CC(=O)O)NC(=O)[C@H](CO)NC(=O)[C@@H](NC(=O)[C@H](Cc1ccccc1)NC(=O)[C@@H](NC(=O)CNC(=O)[C@H](Cc1c[nH]cn1)NC(=O)C(C)(C)NC(=O)[C@@H](N)Cc1c[nH]cn1)[C@@H](C)O)[C@@H](C)O)C(C)C)C(=O)N[C@@H](CCC(=O)O)C(=O)N[C@@H](Cc1c[nH]cn1)C(=O)N[C@@H](CC(C)C)C(=O)N[C@H](C(N)=O)C(C)C` [compound 171] (H-H[Aib]HGTFTSDVSYLK([AEEA-AEEA-γGlu-C20 diacid])EEA[Aib]LQRFLEHLV-NH2), for which, in data set [1], the Fibril formation is 3473. Also, on GLP1R, the EC50 was 0.158 nM and the “SCTR EC50/GLP1R EC50 ratio” value is 209459. Moreover, the “Turbidity (pH 7)” value in data set [2] is reported as 0.08. For the same molecule, the EC50 at SCTR was 31600 nM.

As for `CC[C@H](C)[C@H](NC(=O)[C@H](CO)NC(=O)[C@@H](NC(=O)[C@H](CC(=O)O)NC(=O)[C@H](CO)NC(=O)[C@@H](NC(=O)[C@H](Cc1ccccc1)NC(=O)[C@@H](NC(=O)CNC(=O)[C@H](CCC(=O)O)NC(=O)C(C)(C)NC(=O)[C@@H](N)Cc1c[nH]cn1)[C@@H](C)O)[C@@H](C)O)C(C)C)C(=O)N[C@@H](CC(C)C)C(=O)N[C@@H](CCCCNC(=O)COCCOCCNC(=O)COCCOCCNC(=O)CC[C@H](NC(=O)CCCCCCCCCCCCCCCCCCC(=O)O)C(=O)O)C(=O)N[C@@H](CCC(=O)O)C(=O)N[C@@H](CCC(=O)O)C(=O)N[C@@H](C)C(=O)NC(C)(C)C(=O)N[C@@H](CC(C)C)C(=O)N[C@@H](CCC(N)=O)C(=O)N[C@@H](CCCNC(=N)N)C(=O)N[C@@H](Cc1ccccc1)C(=O)N[C@@H](CC(C)C)C(=O)N[C@@H](CCC(=O)O)C(=O)N[C@@H](Cc1c[nH]cn1)C(=O)N[C@@H](CC(C)C)C(=O)N[C@H](C(N)=O)C(C)C` [compound 172] (H-H[Aib]EGTFTSDVSILK([AEEA-AEEA-γGlu-C20 diacid])EEA[Aib]LQRFLEHLV-NH2), the Fibril formation in data set [1] was found to be 2942. Besides, at GLP1R, the EC50 is 0.0158 nM and the “SCTR EC50/GLP1R EC50 ratio” value stood at 1279. Besides, the “Turbidity (pH 7)” value in data set [2] amounted to 0.08. The EC50 on SCTR is 20 nM.

With `CC(C)C[C@H](NC(=O)[C@H](Cc1ccccc1)NC(=O)[C@H](CCCNC(=N)N)NC(=O)[C@H](CCC(N)=O)NC(=O)[C@H](CC(C)C)NC(=O)C(C)(C)NC(=O)[C@H](C)NC(=O)[C@H](CCC(=O)O)NC(=O)[C@H](CCC(=O)O)NC(=O)[C@H](CCCCNC(=O)COCCOCCNC(=O)COCCOCCNC(=O)CC[C@H](NC(=O)CCCCCCCCCCCCCCCCCCC(=O)O)C(=O)O)NC(=O)[C@H](CC(C)C)NC(=O)[C@H](Cc1ccccc1)NC(=O)[C@H](CO)NC(=O)[C@@H](NC(=O)[C@H](CC(=O)O)NC(=O)[C@H](CO)NC(=O)[C@@H](NC(=O)[C@H](Cc1ccccc1)NC(=O)[C@@H](NC(=O)CNC(=O)[C@H](CCC(=O)O)NC(=O)C(C)(C)NC(=O)[C@@H](N)Cc1c[nH]cn1)[C@@H](C)O)[C@@H](C)O)C(C)C)C(=O)N[C@@H](CCC(=O)O)C(=O)N[C@@H](Cc1c[nH]cn1)C(=O)N[C@@H](CC(C)C)C(=O)N[C@H](C(N)=O)C(C)C` [compound 173] (H-H[Aib]EGTFTSDVSFLK([AEEA-AEEA-γGlu-C20 diacid])EEA[Aib]LQRFLEHLV-NH2), the Fibril formation in data set [1] worked out at 2836. In addition, the values for the EC50 at GLP1R and on SCTR were 0.0126 nM and 158 nM, respectively. Moreover, the “SCTR EC50/GLP1R EC50 ratio” value at GLP1R is listed as 13696. Besides, in data set [2], the “Turbidity (pH 7)” value stood at 0.08.

Molecule `CC(C)C[C@H](NC(=O)[C@H](Cc1ccccc1)NC(=O)[C@H](CCCNC(=N)N)NC(=O)[C@H](CCC(N)=O)NC(=O)[C@H](CC(C)C)NC(=O)C(C)(C)NC(=O)[C@H](C)NC(=O)[C@H](CCC(=O)O)NC(=O)[C@H](CCC(=O)O)NC(=O)[C@H](CCCCNC(=O)COCCOCCNC(=O)COCCOCCNC(=O)CC[C@H](NC(=O)CCCCCCCCCCCCCCCCCCC(=O)O)C(=O)O)NC(=O)[C@H](CC(C)C)NC(=O)[C@H](Cc1c[nH]c2ccccc12)NC(=O)[C@H](CO)NC(=O)[C@@H](NC(=O)[C@H](CC(=O)O)NC(=O)[C@H](CO)NC(=O)[C@@H](NC(=O)[C@H](Cc1ccccc1)NC(=O)[C@@H](NC(=O)CNC(=O)[C@H](CCC(=O)O)NC(=O)C(C)(C)NC(=O)[C@@H](N)Cc1c[nH]cn1)[C@@H](C)O)[C@@H](C)O)C(C)C)C(=O)N[C@@H](CCC(=O)O)C(=O)N[C@@H](Cc1c[nH]cn1)C(=O)N[C@@H](CC(C)C)C(=O)N[C@H](C(N)=O)C(C)C` [compound 174] (H-H[Aib]EGTFTSDVSWLK([AEEA-AEEA-γGlu-C20 diacid])EEA[Aib]LQRFLEHLV-NH2) showed a Fibril formation in data set [1] of 3729. At GLP1R, the EC50 was 0.0126 nM and the “SCTR EC50/GLP1R EC50 ratio” value is listed as 7022. The “Turbidity (pH 7)” value in data set [2] came to 0.08. For the same molecule, the EC50 on SCTR was 100 nM.
